From ChEMBL document CHEMBL4828771, “Discovery and Development of a Potent, Selective, and Orally Bioavailable CHK1 Inhibitor Candidate: 5-((4-((3-Amino-3-methylbutyl)amino)-5-(trifluoromethyl)pyrimidin-2-yl)amino)picolinonitrile” (J Med Chem, 2021) come the findings set out here.

In data set [1] the test system is HT-29. Description: Antitumor activity against human HT-29 cells xenografted in mouse assessed as reduction in tumor growth by measuring T/C ratio at 30 mg/kg, po cotreated with gemcitabine dosed 5 days/week for 22 days measured twice every week. Type of data set: functional. To be noted: time 22 day. For orientation: Xenograft models place foreign cells or tissue in a host animal.

Data set [2] has as its target T1, Serine/threonine-protein kinase Chk1 (Homo sapiens) (UniProt O14757).
T1 sequence (whole entry): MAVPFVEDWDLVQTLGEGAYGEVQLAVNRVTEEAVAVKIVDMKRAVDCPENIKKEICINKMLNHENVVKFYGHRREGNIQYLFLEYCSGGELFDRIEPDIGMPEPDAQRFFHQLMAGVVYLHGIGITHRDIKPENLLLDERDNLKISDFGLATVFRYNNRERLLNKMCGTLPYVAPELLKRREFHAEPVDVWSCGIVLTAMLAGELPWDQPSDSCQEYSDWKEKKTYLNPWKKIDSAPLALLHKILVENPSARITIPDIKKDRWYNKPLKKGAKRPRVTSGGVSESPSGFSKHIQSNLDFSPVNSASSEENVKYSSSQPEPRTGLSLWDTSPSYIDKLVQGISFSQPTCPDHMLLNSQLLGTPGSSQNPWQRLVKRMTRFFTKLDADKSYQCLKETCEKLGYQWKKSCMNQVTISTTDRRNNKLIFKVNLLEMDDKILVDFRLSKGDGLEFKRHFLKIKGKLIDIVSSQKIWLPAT
Description: Inhibition of CHK1 in human MV4-11 cells assessed as increase in phosphorylation at S345 residue incubated for 2 hrs by Western blot analysis. Type of data set: cell-based. For orientation: In western blotting, separated proteins are transferred to a membrane and probed.

Data set [3] is described as follows: Selectivity ratio of Antiproliferative activity against human A549 cells to Antiproliferative activity against human A549 cells in presence of gemcitabine. The class given is functional.
The target of data set [4] is T1, Serine/threonine-protein kinase Chk1 (Homo sapiens). The data set is described as follows: Inhibition of CHK1 in human MV4-11 cells assessed as reduction in autophosphorylation at S296 residue incubated for 2 hrs by Western blot analysis. The class given is cell-based.
Data set [5] deals with T2, Serine/threonine-protein kinase Chk1 (Homo sapiens, UniProt O14757).
T2 sequence (O14757 whole entry): T1 sequence (whole entry)
The data set is described as follows: Inhibition of CHK1 (unknown origin) incubated for 1 hr in presence of ATP by HTRF assay. For orientation: In TR-FRET formats the signal depends on donor and acceptor labels being close together.

Data set [6] relates to A549. Description: Antiproliferative activity against human A549 cells incubated for 72 hrs by CCK8 assay. The class given is functional, cell-based.
The target in data set [7] is T1, Serine/threonine-protein kinase Chk1 (Homo sapiens). Description: Inhibition of wild type human CHK1 (M1 to G289 residue) expressed in bacterial expression system assessed as protein activity at 0.5 uM relative to control. Also on record: scale not given: the % may be the effect or the level left.
For data set [8], the system named is Mus musculus. The data set is described as follows: Induction of S345 phosphorylation in tumor of mouse xenografted with human HT-29 cells at 30 mg/kg, po dosed 5 days/week for 22 days by Western blot analysis. Type of data set: functional, organism-based. Conditions: time 22.0 day.
The test system of data set [9] is MV4-11. Description: Antitumor activity against human MV4-11 cells xenografted in mouse assessed as inhibition of tumor growth at 15 mg/kg, po dosed for 21 days measured twice every week relative to control. Conditions: MV4-11, po, 504 h, time 21 day, read-out: TGI. Type of data set: functional.
Data set [10] can be described thus: Cmax in ICR mouse at 20 mg/kg, po measured after 0.083 to 48 hrs by LC-MS/MS analysis. Type of data set: ADME, organism-based. More on the design: route oral, time upper 48 hrs, time lower 0.083 hrs, dose 20 mg/kg. Conditions: in vivo.
The nature of data set [11]: MRT (0 to infinity) in ICR mouse at 20 mg/kg, po measured after 0.083 to 48 hrs by LC-MS/MS analysis. Type of data set: ADME, organism-based. Conditions: in vivo, time 0.083-48 hrs.
For data set [12], the target named is Ribosomal protein S6 kinase alpha-3 (Homo sapiens) (UniProt P51812). The data set is described as follows: Inhibition of wild type human RSK2 expressed in mammalian expression system assessed as protein activity at 0.5 uM relative to control. Also on record: scale not given: the % may be the effect or the level left.
Sequence of Ribosomal protein S6 kinase alpha-3 (Homo sapiens) (P51812 whole entry): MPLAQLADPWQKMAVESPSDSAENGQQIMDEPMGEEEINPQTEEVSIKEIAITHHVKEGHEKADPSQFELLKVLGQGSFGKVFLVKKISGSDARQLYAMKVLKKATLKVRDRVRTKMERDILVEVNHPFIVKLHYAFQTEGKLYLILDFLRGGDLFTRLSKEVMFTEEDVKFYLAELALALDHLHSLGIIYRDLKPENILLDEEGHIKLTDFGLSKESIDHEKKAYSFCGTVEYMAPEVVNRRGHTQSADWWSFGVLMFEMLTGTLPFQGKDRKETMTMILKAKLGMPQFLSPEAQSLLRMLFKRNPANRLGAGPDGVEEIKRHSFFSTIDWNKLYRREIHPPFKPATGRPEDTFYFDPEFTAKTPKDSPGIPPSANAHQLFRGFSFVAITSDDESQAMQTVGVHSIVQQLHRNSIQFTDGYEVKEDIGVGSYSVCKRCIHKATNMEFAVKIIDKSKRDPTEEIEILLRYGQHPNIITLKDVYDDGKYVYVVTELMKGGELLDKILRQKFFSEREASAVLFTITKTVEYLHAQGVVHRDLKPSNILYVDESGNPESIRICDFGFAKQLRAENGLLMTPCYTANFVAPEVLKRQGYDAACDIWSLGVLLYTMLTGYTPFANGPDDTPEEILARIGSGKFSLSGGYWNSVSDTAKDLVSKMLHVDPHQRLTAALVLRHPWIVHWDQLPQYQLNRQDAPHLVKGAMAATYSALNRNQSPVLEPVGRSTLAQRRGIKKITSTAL
Data set [13] can be described thus: Half life in ICR mouse at 20 mg/kg, po measured after 0.083 to 48 hrs by LC-MS/MS analysis. Type of data set: ADME, organism-based. To be noted: in vivo, time 0.083-48 hrs.
Data set [14] is described as follows: AUC (0 to infinity) in ICR mouse at 20 mg/kg, po measured after 0.083 to 48 hrs by LC-MS/MS analysis. Type of data set: ADME, organism-based. More on the design: route oral, time upper 48 hrs, time lower 0.083 hrs, dose 20 mg/kg. Conditions: in vivo.
Data set [15] addresses Calcium/calmodulin-dependent protein kinase type II subunit delta (Homo sapiens) (UniProt Q13557). Description: Inhibition of wild type human CAMK2D (M1 to E329 residues) expressed in bacterial expression system assessed as protein activity at 0.5 uM relative to control. Also on record: scale not given: the % may be the effect or the level left.
Data set [16] in a line: AUCt in ICR mouse at 20 mg/kg, po measured after 0.083 to 48 hrs by LC-MS/MS analysis. Type of data set: ADME, organism-based. Also on record: route oral, dose 20 mg/kg, time 0.083-48 hrs. Conditions: in vivo.

Each structure is given as a SMILES string. Calls of active or inactive are those of the source. No cut-off for these calls is given here.

Sequence of Calcium/calmodulin-dependent protein kinase type II subunit delta (Homo sapiens) (Q13557 whole entry, the tested form may be a part): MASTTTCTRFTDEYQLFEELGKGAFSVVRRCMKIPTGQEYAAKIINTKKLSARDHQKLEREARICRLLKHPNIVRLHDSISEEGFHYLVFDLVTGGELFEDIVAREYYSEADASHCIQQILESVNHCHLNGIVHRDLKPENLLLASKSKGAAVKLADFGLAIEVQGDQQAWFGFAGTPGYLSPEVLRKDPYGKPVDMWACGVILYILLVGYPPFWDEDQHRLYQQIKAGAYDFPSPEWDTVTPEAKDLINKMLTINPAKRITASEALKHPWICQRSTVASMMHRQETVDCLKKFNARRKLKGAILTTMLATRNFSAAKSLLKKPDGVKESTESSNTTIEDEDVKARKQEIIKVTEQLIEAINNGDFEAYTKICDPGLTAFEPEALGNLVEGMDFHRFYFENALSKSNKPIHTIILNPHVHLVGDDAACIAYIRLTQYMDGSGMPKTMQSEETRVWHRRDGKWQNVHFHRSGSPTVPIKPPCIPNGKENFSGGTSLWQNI

For orientation: T/C means the result in the treated group divided by that in the control group, in per cent. By IC50 is commonly meant the concentration that gives 50% inhibition. The term Cmax denotes the maximum level reached in the sampled fluid or tissue. The MRT inf is the average time that molecules of a dose stay in the body. The term half-life denotes how long it takes for the measured level to halve. The term AUC(0-inf) denotes total exposure, with the tail of the curve extrapolated. Broadly, the AUC(0-t) is exposure summed from dosing to a finite time, without extrapolation to infinity. With `CC(C)(N)CCNc1nc(Nc2ccc(C#N)nc2)ncc1C(F)(F)F`, the T/C in data set [1] is 11.99%. Further, the Activity result in data set [2] is “Dose-Dependent Effect”; in [7] it was 4%; in data set [12], 13%; in [15], 19%. For the same molecule, the Ratio in data set [3] was 100. In addition, the inhibition entry in data set [4] is “Dose-Dependent Effect”. The half-maximal inhibitory concentration (IC50) in data set [5] stood at 16.1 nM. For the same molecule, the outcome in data set [6] and in [8] was Active. Moreover, the inhibition in vivo at 15 mg/kg in data set [9] turned out to be 95.5%. In data set [10], this molecule came in with a Cmax of 1450 ng/mL. This molecule also yielded a mean residence time (MRT inf) in [11] of 14.7 h. Also, the half-life in data set [13] was 10.8 h. Further, the AUC(0-inf) in [14] turned out to be 22700 ng·h/mL. Moreover, in data set [16], the AUC(0-t) came out at 17700 ng·h/mL.
